{"source": "patent US10092584B2", "about": "(Achillion Pharmaceuticals, Inc., priority 2015, dated 2018)", "target": "T1, Human Factor D (Homo sapiens, UniProt P00746)", "T1 construct": "purified from human serum; purchased Complement Technology, Inc; host or cells: human serum", "T1 sequence (P00746 26-253)": "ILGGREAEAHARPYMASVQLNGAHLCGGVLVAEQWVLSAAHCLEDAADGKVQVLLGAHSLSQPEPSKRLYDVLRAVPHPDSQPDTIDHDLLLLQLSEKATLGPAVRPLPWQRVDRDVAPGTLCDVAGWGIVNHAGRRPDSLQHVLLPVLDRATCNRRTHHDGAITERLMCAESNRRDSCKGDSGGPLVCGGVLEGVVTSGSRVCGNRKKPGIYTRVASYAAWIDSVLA", "assay": "Human Factor D assay (Example 8)", "format": "biochemical", "procedure": "Human Factor D (purified from human serum, Complement Technology, Inc.) at 80 nM final concentration was incubated with test compound at various concentrations for 5 minutes at room temperature in 50 mM Tris, 1M NaCl, pH 7.5. A synthetic substrate Z-L-Lys-SBzl and DTNB (Ellman's reagent) are added to final concentrations of 100 μM each. […] IC50 values are calculated by nonlinear regression of complement Factor D reaction rates as a function of test compound concentration.", "key": {"[1]": {"details": "Table 1, Human Factor D 80 nM, substrate Z-L-Lys-SBzl, read-out: IC50"}, "[2]": {"details": "Table 3, Human Factor D 80 nM, substrate Z-L-Lys-SBzl, read-out: IC50 (Stars)"}, "[3]": {"details": "Table 2, Human Factor D 80 nM, substrate Z-L-Lys-SBzl, read-out: IC50"}}, "note": "Where two headings read alike, the source gives them in different places."}
{"smiles": "CC(=O)n1cc(C(=O)C(=O)N2C[C@H](F)C[C@H]2C(=O)NCc2cccc(Cl)c2F)c2ccccc21", "note": "[Compound 71, (2S,4R)-1-(2-(1-acetyl-1H-indol-3-yl)-2-oxoacetyl)-N-(3-chloro-2-fluorobenzyl)-4-fluoropyrrolidine-2-carboxamide]", "values": [{"measurement": "IC50", "setting": "[1]", "value": "> 10000", "unit": "nM"}]}
{"smiles": "CC(=O)c1nn(CC(=O)N2[C@@H]3C[C@@H]3C[C@H]2C(=O)NC/C(F)=C(/C)c2cccc(Cl)c2)c2ccccc12", "note": "[Compound 396]", "values": [{"measurement": "IC50", "setting": "[2]", "value": "< 1000", "unit": "nM"}]}
{"smiles": "CC(=O)n1cc(NC(=O)[C@@H]2C[C@@H](F)CN2C(=O)NCc2cccc(Cl)c2F)c2ccccc21", "note": "[Compound 3, (2S,4R)-N2-(1-acetyl-1H-indol-3-yl)-N1-(3-chloro-2-fluorobenzyl)-4-fluoropyrrolidine-1,2-dicarboxamide]", "values": [{"measurement": "IC50", "setting": "[1]", "value": "> 10000", "unit": "nM"}]}
{"smiles": "CC(=O)c1cn(CC(=O)N2C[C@H](F)C[C@H]2C(=O)Nc2cccc(-c3ccccc3Cl)c2F)c2c(C#Cc3ncc(F)cn3)cccc12", "note": "[Compound 124, (2S,4R)-1-(2-(3-acetyl-7-((5-fluoropyrimidin-2-yl)ethynyl)-1H-indol-1-yl)acetyl)-N-(2′-chloro-2-fluorobiphenyl-3-yl)-4-fluoropyrrolidine-2-carboxamide]", "values": [{"measurement": "IC50", "value": "< 1000", "unit": "nM"}]}
{"smiles": "Cc1cc2c(s1)c(C(N)=O)nn2CC(=O)N1C[C@H](F)C[C@H]1C(=O)Nc1cccc(Br)n1", "note": "[Compound 118, 1-(2-((2S,4R)-2-(6-bromopyridin-2-ylcarbamoyl)-4-fluoropyrrolidin-1-yl)-2-oxoethyl)-5-methyl-1H-thieno[3,2-c]pyrazole-3-carboxamide]", "values": [{"measurement": "IC50", "setting": "[1]", "value": "< 1000", "unit": "nM"}]}
{"smiles": "CC(=O)n1cc(NC(=O)Nc2cn(C(C)=O)c3ccccc23)c2ccccc21", "note": "[Compound 20, 1,3-bis(1-acetyl-1H-indol-3-yl)urea]", "values": [{"measurement": "IC50", "setting": "[1]", "value": "> 10000", "unit": "nM"}]}
{"smiles": "CC(=O)c1cn(CC(=O)N2C[C@H](F)C[C@H]2Cn2cc(-c3ccc(F)cc3)nn2)c2ccccc12", "note": "[Compound 27, 2-(3-acetyl-1H-indol-1-yl)-1-((2S,4R)-4-fluoro-2-((4-(4-fluorophenyl)-1H-1,2,3-triazol-1-yl)methyl)pyrrolidin-1-yl)ethanone]", "values": [{"measurement": "IC50", "setting": "[1]", "value": "> 10000", "unit": "nM"}]}
{"smiles": "CC(=O)n1cc(NC(=O)[C@H]2CC(F)(F)CN2C(=O)Cc2cccc(Cl)c2F)c2ccccc21", "note": "[Compound 17, (R)-N-(1-acetyl-1H-indol-3-yl)-1-(2-(3-chloro-2-fluorophenyl)acetyl)-4,4-difluoropyrrolidine-2-carboxamide]", "values": [{"measurement": "IC50", "setting": "[1]", "value": "> 10000", "unit": "nM"}]}
{"smiles": "CC(=O)c1cn(CC(=O)N2C[C@H](F)C[C@H]2C(=O)Nc2cccc(-c3ccccc3Cl)c2F)c2c(-c3ccc(Cl)nc3)cccc12", "note": "[Compound 112, (2S,4R)-1-(2-(3-acetyl-7-(6-chloropyridin-3-yl)-1H-indol-1-yl)acetyl)-N-(2′-chloro-2-fluorobiphenyl-3-yl)-4-fluoropyrrolidine-2-carboxamide]", "values": [{"measurement": "IC50", "value": "< 1000", "unit": "nM"}]}
{"smiles": "CC(=O)c1cn(CC(=O)N2C[C@H](F)C[C@H]2C(=O)N(C)Cc2cccc(Cl)c2F)c2ccccc12", "note": "[Compound 34, (2S,4R)-1-(2-(3-acetyl-1H-indol-1-yl)acetyl)-N-(3-chloro-2-fluorobenzyl)-4-fluoro-N-methylpyrrolidine-2-carboxamide]", "values": [{"measurement": "IC50", "setting": "[1]", "value": "> 10000", "unit": "nM"}]}
{"smiles": "CC(=O)n1cc(NC(=O)[C@H]2CC(F)(F)CN2C(=O)NCc2cccc(Cl)c2F)c2ccccc21", "note": "[Compound 8, (R)-N2-(1-acetyl-1H-indol-3-yl)-N1-(3-chloro-2-fluorobenzyl)-4,4-difluoropyrrolidine-1,2-dicarboxamide]", "values": [{"measurement": "IC50", "setting": "[1]", "value": "> 10000", "unit": "nM"}]}
{"smiles": "CC(=O)c1nn(CC(=O)N2[C@@H]3C[C@@H]3C[C@H]2C(=O)Nc2cccc(-c3ccc4nc[nH]c4c3Cl)c2F)c2cnc(C)cc12", "note": "[Compound 454, (1R,3S,5R)-2-(2-(3-acetyl-5-methyl-1H-pyrazolo[3,4-c]pyridin-1-yl)acetyl)-N-(3-(7-chloro-1H-benzo[d]imidazol-6-yl)-2-fluorophenyl)-2-azabicyclo[3.1.0] hexane-3-carboxamide]", "values": [{"measurement": "IC50", "setting": "[2]", "value": "< 1000", "unit": "nM"}]}
{"smiles": "NC(=O)c1nn(CC(=O)N2C[C@H](F)C[C@H]2C(=O)Nc2cccc(-c3ccccc3Cl)c2F)c2c(Cl)c(Cl)sc12", "note": "[Compound 137, 5,6-Dichloro-1-(2-((2S,4R)-2-((2′-chloro-2-fluoro-[1,1′-biphenyl]-3-yl)carbamoyl)-4-fluoropyrrolidin-1-yl)-2-oxoethyl)-1H-thieno[3,2-c]pyrazole-3-carboxamide]", "values": [{"measurement": "IC50", "setting": "[3]", "value": "< 1000", "unit": "nM"}]}
{"smiles": "CC(=O)c1nn(CC(=O)N2C[C@H](F)C[C@H]2C(=O)Nc2cccc(-c3ccccc3Cl)c2F)c2cc(C(=O)O)sc12", "note": "[Compound 138]", "values": [{"measurement": "IC50", "setting": "[3]", "value": "< 1000", "unit": "nM"}]}
{"smiles": "CC(=O)c1nn(CC(=O)N2C[C@H](F)C[C@H]2C(=O)Nc2cccc(-c3ccc4[nH]cnc4c3Cl)c2F)c2cnccc12", "note": "[Compound 459, (2S,4R)-1-(2-(3-acetyl-1H-pyrazolo[3,4-c]pyridin-1-yl)acetyl)-N-(3-(4-chloro-1H-benzo[d]imidazol-5-yl)-2-fluorophenyl)-4-fluoropyrrolidine-2-carboxamide]", "values": [{"measurement": "IC50", "setting": "[2]", "value": "< 1000", "unit": "nM"}]}
{"smiles": "NC(=O)c1nn(CC(=O)N2C[C@H](F)C[C@H]2C(=O)Nc2cccc(-c3ccc(F)c(F)c3Cl)c2F)c2ccccc12", "note": "[Compound 92, 1-(2-((2S,4R)-2-(2′-chloro-2,3′,4′-trifluorobiphenyl-3-ylcarbamoyl)-4-fluoropyrrolidin-1-yl)-2-oxoethyl)-1H-indazole-3-carboxamide]", "values": [{"measurement": "IC50", "value": "< 1000", "unit": "nM"}]}
{"smiles": "CC(=O)c1cn(CC(=O)N2C[C@H](F)C[C@H]2C(=O)Nc2cccc(-c3ccc4[nH]cnc4c3Cl)c2F)c2ccccc12", "note": "[Compound 460, (2S,4R)-1-(2-(3-acetyl-1H-indol-1-yl)acetyl)-N-(3-(4-chloro-1H-benzo[d]imidazol-5-yl)-2-fluorophenyl)-4-fluoropyrrolidin-2-carboxamide]", "values": [{"measurement": "IC50", "setting": "[2]", "value": "< 1000", "unit": "nM"}]}
{"smiles": "CC(=O)c1cc(CC(=O)N2C[C@H](F)C[C@H]2C(=O)Nc2cccc(Br)n2)n2ccccc12", "note": "[Compound 314, (2S,4R)-1-(2-(1-Acetylindolizin-3-yl)acetyl)-N-(6-bromopyridin-2-yl)-4-fluoropyrrolidine-2-carboxamide]", "values": [{"measurement": "IC50", "setting": "[2]", "value": "< 1000", "unit": "nM"}]}
{"smiles": "O=C(NCc1cccc(Cl)c1F)[C@@H]1C[C@@H](F)CN1C(=O)Cn1nc(-c2cnc[nH]2)c2ccncc21", "note": "[Compound 75, (2S,4R)-1-(2-(3-(1H-imidazol-5-yl)-1H-pyrazolo[3,4-c]pyridin-1-yl)acetyl)-N-(3-chloro-2-fluorobenzyl)-4-fluoropyrrolidine-2-carboxamide]", "values": [{"measurement": "IC50", "setting": "[1]", "value": "< 1000", "unit": "nM"}]}
{"smiles": "CC(=O)c1nn(CC(=O)N2C[C@H](F)C[C@H]2C(=O)Nc2cccc(-c3ccc4c(c3)CCN4)c2F)c2ccccc12", "note": "[Compound 435, (2S,4R)-1-(2-(3-Acetyl-1H-indazol-1-yl)acetyl)-4-fluoro-N-(2-fluoro-3-(indolin-5-yl)phenyl)pyrrolidine-2-carboxamide]", "values": [{"measurement": "IC50", "setting": "[2]", "value": "< 1000", "unit": "nM"}]}
{"smiles": "CC(=O)c1cc(CC(=O)N2C[C@H](F)C[C@H]2C(=O)Nc2cccc(-c3ccccc3Cl)c2F)n2ccccc12", "note": "[Compound 312, (2S,4R)-1-(2-(1-Acetylindolizin-3-yl)acetyl)-N-(2′-chloro-2-fluorobiphenyl-3-yl)-4-fluoropyrrolidine-2-carboxamide]", "values": [{"measurement": "IC50", "setting": "[2]", "value": "< 1000", "unit": "nM"}]}
{"smiles": "NC(=O)c1nn(CC(=O)N2C[C@H](F)C[C@H]2C(=O)Nc2cccc(-c3ccc4[nH]cnc4c3Cl)c2F)c2ccccc12", "note": "[Compound 122, 1-(2-((2S,4R)-2-(3-(4-chloro-1H-benzo[d]imidazol-5-yl)-2-fluorophenylcarbamoyl)-4-fluoropyrrolidin-1-yl)-2-oxoethyl)-1H-indazole-3-carboxamide]", "values": [{"measurement": "IC50", "value": "< 1000", "unit": "nM"}]}
{"smiles": "Cc1nc2c(s1)c(C(N)=O)nn2CC(=O)N1C[C@H](F)C[C@H]1C(=O)Nc1cccc(-c2ccccc2Cl)c1F", "note": "[Compound 383, 1-(2-((2S,4R)-2-(2′-Chloro-2-fluorobiphenyl-3-ylcarbamoyl)-4-fluoropyrrolidin-1-yl)-2-oxoethyl)-5-methyl-1H-pyrazolo[3,4-d]thiazole-3-carboxamide]", "values": [{"measurement": "IC50", "setting": "[2]", "value": "< 1000", "unit": "nM"}]}
{"smiles": "CC(=O)c1cn(CC(=O)N2C[C@H](F)C[C@H]2c2ncc(-c3cccc(Cl)c3)[nH]2)c2ccccc12", "note": "[Compound 11, 2-(3-acetyl-1H-indol-1-yl)-1-((2S,4R)-2-(5-(3-chlorophenyl)-1H-imidazol-2-yl)-4-fluoropyrrolidin-1-yl)ethanone]", "values": [{"measurement": "IC50", "setting": "[1]", "value": "> 10000", "unit": "nM"}]}
{"smiles": "CC(=O)c1cn(CC(=O)N2CC(F)C(OCC3CC3)[C@H]2C(=O)NCc2cccc(Cl)c2F)c2cc(O)ccc12", "note": "(stereo partly drawn) [Compound 25, (2S)-1-(2-(3-acetyl-6-hydroxy-1H-indol-1-yl)acetyl)-N-(3-chloro-2-fluorobenzyl)-3-(cyclopropylmethoxy)-4-fluoropyrrolidine-2-carboxamide]", "values": [{"measurement": "IC50", "value": "< 1000", "unit": "nM"}]}
{"smiles": "NC(=O)c1nn(CC(=O)N2CC(=O)C[C@H]2C(=O)Nc2cccc(-c3ccccc3Cl)c2F)c2ccccc12", "note": "[Compound 355, (S)-1-(2-(2-((2′-chloro-2-fluoro-[1,1′-biphenyl]-3-yl)carbamoyl)-4-oxopyrrolidin-1-yl)-2-oxoethyl)-1H-indazole-3-carboxamide]", "values": [{"measurement": "IC50", "setting": "[2]", "value": "< 1000", "unit": "nM"}]}
{"smiles": "C[C@@]12C[C@@H](C(=O)Nc3cccc(-c4ccc5nc[nH]c5c4Cl)c3F)N(C(=O)Cn3nc(C(N)=O)c4ccccc43)[C@@H]1C2", "note": "[Compound 453, 1-(2-((1R,3S,5R)-3-((3-(7-chloro-1H-benzo[d]imidazol-6-yl)-2-fluorophenyl)car-bamoyl)-5-methyl-2-azabicyclo[3.1.0]hexan-2-yl)-2-oxoethyl)-1H-indazole-3-carboxamide]", "values": [{"measurement": "IC50", "setting": "[2]", "value": "< 1000", "unit": "nM"}]}
{"smiles": "NC(=O)c1nn(CC(=O)N2C[C@H](F)C[C@H]2C(=O)Nc2cccc(-c3cc(C(=O)CO)ccc3Cl)c2F)c2ccccc12", "note": "[Compound 141, 1-(2-((2S,4R)-2-(2′-chloro-2-fluoro-5′-(2-hydroxyacetyl)bi-phenyl-3-ylcarbamoyl)-4-fluoropyrrolidin-1-yl)-2-oxoethyl)-1H-indazole-3-carboxamide]", "values": [{"measurement": "IC50", "setting": "[3]", "value": "< 1000", "unit": "nM"}]}
